In patent publication US7235548B2, “Compounds and their use as positive AMPA receptor modulators” (NeuroSearch A/S, priority 1998, dated 2007):

Columns and labels:
[1] = target: ionotropic quisqualate (AMPA) receptors; assay: In vitro inhibition of 3H-AMPA binding; conditions: 5 nM 3H-AMPA, rat cerebral cortex membranes, 30 min at 2° C.; read-out: IC50 (concentration of the test substance which inhibits the specific binding of 3H-AMPA by 50%)
Excerpt: L-glutamate (GLU) is the major excitatory neurotransmitter in the mammalian central nervous system. From electrophysiological- and binding studies, there appear to be at least three subtypes of GLU receptors, tentatively named N-methyl-D-aspartate (NMDA)-, quisqualate- and kainate receptors. GLU receptor subtypes sensitive to quisqualate and kainate as a group are often referred to as non-NMDA receptors. Receptor binding studies using the labelled agonists ^3H-AMPA (α-amino-3-hydroxy-5-methyl-4-isoxazolepropionic acid) (for quisqualate receptors) and ^3H-kainate (for kainate receptors) have shown different antagonist selectivities and regional distribution. AMPA has been known for several years to be a potent and selective agonist at the traditionally named quisqualate receptors. Activation of quisqualate receptors by AMPA is associated with Na^+ influx and K^+ efflux leading to depolarization.
The non-NMDA receptors have recently been reclassified to include the quisqualate activated metabotropic receptor type, linked to the inositol triphosphate and diacylglycerate metabolism. […] Selective activation of the metabotropic type has been claimed for trans-ACPD. Recently, the potent and competitive non-NMDA receptor antagonists CNQX and NBQX have been described, and CNQX have been reported not to block the effect of quisqualate at the metabotropic receptor subtype. ^3H-AMPA is a selective radioligand for labelling the ionotropic quisqualate (AMPA) receptors.
Preparations are performed at 0–4° C. unless otherwise indicated. Cerebral cortex from male Wistar rats (150–200 g) is homogenized for 5–10 sec in 20 ml Tris-HCl (30 mM, pH 7.4) using an Ultra-Turrax homogenizer. The suspension is centrifuged at 27,000×g for 15 min and the pellet is washed three times with buffer (centrifuged at 27,000×g for 10 min). The washed pellet is homogenized in 20 ml of buffer and incubated on a water bath (37° C.) for 30 min to remove endogenous glutamate and then centrifuged for 10 min at 27,000×g. The pellet is then homogenized in buffer and centrifuged at for 10 min at 27,000×g. The final pellet is resuspended in 30 ml buffer and the preparation is frozen and stored at −20° C.
The membrane preparation is thawed and centrifuged at 2° C. for 10 min at 27,000×g for 10 min. The pellet is washed twice with 20 ml 30 mM Tris-HCl containing 2.5 mM CaCl2, pH 7.4 using an Ultra-Turrax homogenizer and centrifuged for 10 min at 27,000×g. The final pellet is resuspended in 30 mM Tris-HCl containing 2.5 mM CaCl2 and 100 mM KSCN, pH 7.4 (100 ml per g of original tissue) and used for binding assays. Aliquots of 0.5 (0.2) ml are added to 25 (20) μl of test solution and 25(20) μl of ^3H-AMPA (5 nM, final concentration), mixed and incubated for 30 min at 2° C. Non-specific binding is determined using L-glutamate (0.6 mM, final concentration). After incubation the 550 μl samples are added 5 ml of ice-cold buffer and poured directly onto Whatman GF/C glass fibre filters under suction and immediately washed with 5 ml of ice-cold buffer. The 240 μl samples are filtered over glass fibre filter using a Skatron cell harvrester. The filters are washed with 3 ml ice-cold buffer. The amount of radioactivity on the filters is determined by conventional liquid scintillation counting. Specific binding is total binding minus non-specific binding.
The test value will be given as the IC50 (the concentration (μM) of the test substance which inhibits the specific binding of ^3H-AMPA by 50%)

AMPA receptors = assay: AMPA evoked single neuron spike activity in rat hippocampus (iontophoretic application of AMPA), in vivo; conditions: 10 mg kg^−1 i.v., rat hippocampus
Excerpt: Evaluation of the in vivo effects of positive AMPA modulators (PAMs) on the AMPA evoked spike activity in rat hippocampus. Hippocampal single neuron spike activity is strongly influenced by excitatory input, and iontophoretic application of AMPA induces spike activity in vivo in a dose-dependent manner ([…] et al. 1998). […] PAMs potentate AMPA receptor activation in vitro, and if this mechanism also operates in vivo, the i.v. injection of an PAM should enhance AMPA evoked spike activity. Thus, the aim of this study was to test the in vivo effect of a group of in vitro active PAMs. This have been done by studying their ability to enhances AMPA evoked spike activity after i.v. administration. Experiments were performed on male Wistar rats (M & B, Denmark) weighing 280-380 g, housed in two per cage with free access to food and water. […] Additional anaesthetic was given i.v. if the rat responded to a pinch of the back foot. The trachea was cannulated and the rats were placed in a stereotaxic frame and ventilated by a rodent ventilator (Ugo Basile, Comerio-Varese, Italy). Core body temperature was maintained at 37.5° C. by a DC heating pad. The left and dorsal part of the parietal bone was removed by craniotomy and the dura was withdrawn exposing the pia mater and underlying brain, covered with 0.9% NaCl. AMPA (Sigma, USA) was dissolved at 10 mM in 0.2 M NaCl. NMDA (Sigma, USA) was dissolved at 100 mM in 100 mM NaCl. Both solutions were adjusted to pH 7.5-8.0 with NaOH. COMPOUND 61 was dissolved in 200 mM CH3SO3^- Na^+ at a contration of 10 mM for iontophoretic application ([…]) and in isotonic glucose (278 mM) for i.v. administration. Cyclothiazide, COMPOUND 63, COMPOUND 56, COMPOUND 115 and COMPOUND 114 were all dissolved at in 5% chremophore solution at a concentration of 5 mg ml^-1. Evoked neuronal spike activity was analyzed on-line by a computer, saving single spikes and time of event. Neuronal spike activity (number of action potentials s^-1) was monitored on a pulse rate histogram together with indicators for AMPA, COMPOUND 61 and vehicle application. Extracellular recordings of single hippocampal neuron spikes were made with five-barrel glass microelectrodes (5B120F-6, World Precision Instruments Inc., Sarasota, Fla., USA) with a tip diameter of 10-12 μm. The individual barrels were filled with 5 M NaCl (recording), 400 mM NaCl (current balancing), 10 mM COMPOUND 61 in 200 mM CH3SO3^- Na^+ (pH 4.7), 200 mM CH3SO3^- Na^+ (pH 4.7, Vehicle), and the last barrel was filled with the AMPA. Experiments were performed on hippocampal neurons (A=5.5-6.5 mm, L=1.5-2.0 mm, H=2.0-3.0 mm, according to Paxinos & Watson, 1986). Neuronal spike activity was evoked by iontophoretic application of AMPA for periods of 10 to 15 s with 1.5 min intervals. Single neuron spike activity was amplified 5000 times with a bandwidth of 0.3 and 3 kHz (CyberAmp 320 with a Al 402 x50 smartprobe, Axon Instruments, California, USA). On-line and off-line analyses were performed by the Spike2 program with a 1401 plus interface (Cambridge Electronic Design Limited, England). The computer program also recorded mean arterial blood pressure and monitored and controlled iontophoretic application. AMPA was ejected into hippocampus in regular cycles of 100-105 s. […] Recording of neuronal spike activity was continued for at least 45 min after intravenous injection. The PAM reactivity was tested by microiontophoretic application of COMPOUND 61 (20 nA, FIG.).

melting point | SMILES | further results
124 to 126 °C | CC1NC(=O)c2ccccc2O1 (stereo not drawn) [Compound 3, 2-Methyl-3,4-dihydro-1,3-benzoxazine-4-one] | 
157 to 160 °C | O=C1NC(c2ccccc2)Oc2ccccc21 (stereo not drawn) [Compound 4, 2-Phenyl-3,4-dihydro-1,3-benzoxazine-4-one] | 
76 to 78 °C | CCC1(C)NC(=O)c2ccccc2O1 (stereo not drawn) [Compound 8, 2-Ethyl-2-methyl-3,4-dihydro-1,3-benzoxazine-4-one] | 
 | CC(=O)c1ccc2c(c1)S(=O)(=O)NC(C1CCCCC1)N2 (stereo not drawn) [Compound 13, 3-Cyclohexyl-7-acetyl-1,2,3,4-tetrahydro-1,2,4-benzothiadiazine-1,1-dioxide] | IC50 [1]: 22 µM
 | CC(=NO)c1ccc2c(c1)S(=O)(=O)NC(C1CCCCC1)N2 (stereo not drawn) [Compound 14, 3-Cyclohexyl-7-(1-hydroxyiminoethyl)-1,2,3,4-tetrahydro-1,2,4-benzothiadiazine-1,1-dioxide] | IC50 [1]: 45 µM
 | NC(=O)c1ccc2c(c1)S(=O)(=O)NC(C1CCCCC1)N2 (stereo not drawn) [Compound 15, 3-Cyclohexyl-7-carbamoyl-1,2,3,4-tetrahydro-1,2,4-benzothiadiazine-1,1-dioxide] | IC50 [1]: 39 µM
245 to 249 °C | CC(=O)Nc1ccccc1-c1ccc2c(c1)S(=O)(=O)NC(C1CCCCC1)N2 (stereo not drawn) [Compound 19, 3-Cyclohexyl-7-(2′-acetamidophenyl)-1,2,3,4-tetrahydro-1,2,4-benzothiadiazine-1,1-dioxide] | 
255 to 257 °C | COc1cc(C(F)(F)F)ccc1-c1ccc2c(c1)S(=O)(=O)NC(C1CCCCC1)N2 (stereo not drawn) [Compound 22, 3-Cyclohexyl-7-(2′-methoxy-4′-trifluoromethylphenyl)-1,2,3,4-tetrahydro-1,2,4-benzothiadiazine-1,1-dioxide] | 
290 to 300 °C | CN(C)S(=O)(=O)c1ccccc1-c1ccc2c(c1)S(=O)(=O)NC(C1CCCCC1)N2 (stereo not drawn) [Compound 24, 3-Cyclohexyl-7-(2′-(N,N-dimethylsulfamoyl)phenyl)-1,2,3,4-tetrahydro-1,2,4-benzothiadiazine-1,1-dioxide] | 
238 to 246 °C | O=S1(=O)NC(C2CCCCC2)Nc2ccc(-c3cccc(O)c3)cc21 (stereo not drawn) [Compound 27, 3-Cyclohexyl-7-(3′-hydroxyphenyl)-1,2,3,4-tetrahydro-1,2,4-benzothiadiazine-1,1-dioxide] | 
255 to 258 °C | CS(=O)(=O)Nc1ccc2c(c1)S(=O)(=O)NC(C1CCCCC1)N2 (stereo not drawn) [Compound 39, 3-Cyclohexyl-7-methylsulfonylamino-1,2,3,4-tetrahydro-1,2,4-benzothiadiazine-1,1-dioxide] | 
209 to 211 °C | O=[N+]([O-])c1ccc2c(c1)S(=O)(=O)NC(C1CCCCC1)N2 (stereo not drawn) [Compound 40, 3-Cyclohexyl-7-nitro-1,2,3,4-tetrahydro-1,2,4-benzothiadiazine-1,1-dioxide] | 
 | NS(=O)(=O)c1ccc2c(c1)S(=O)(=O)NC(C1CCCCC1)N2 (stereo not drawn) [Compound 44, 3-Cyclohexyl-7-sulfamoyl-1,2,3,4-tetrahydro-1,2,4-benzothiadiazine-1,1-dioxide] | IC50 [1]: 3.5 µM
 | CN(C)S(=O)(=O)c1ccc2c(c1)S(=O)(=O)NC(C1CCCCC1)N2 (stereo not drawn) [Compound 47, 3-Cyclohexyl-7-dimethylaminosulfonyl-1,2,3,4-tetrahydro-1,2,4-benzothiadiazine-1,1-dioxide] | IC50 [1]: 5.3 µM
258 to 260 °C | O=S1(=O)NC(C2CCCC2)Nc2ccc(S(=O)(=O)N3CCCCC3)cc21 (stereo not drawn) [Compound 55, 3-Cyclopentyl-7-piperidinosulfonyl-1,2,3,4-tetrahydro-1,2,4-benzothiadiazine-1,1-dioxide] | 
243 to 245 °C | CN1C(C2CCCCC2)Nc2ccc(S(=O)(=O)N3CCOCC3)cc2S1(=O)=O (stereo not drawn) [Compound 85, 3-Cyclohexyl-2-methyl-7-morpholinosulfonyl-1,2,3,4-tetrahydro-1,2,4-benzothiadiazine-1,1-dioxide] | 
207 to 210 °C | CN1c2ccc(S(=O)(=O)N3CCOCC3)cc2S(=O)(=O)NC1C1CCCCC1 (stereo not drawn) [Compound 86, 3-Cyclohexyl-4-methyl-7-morpholinosulfonyl-1,2,3,4-tetrahydro-1,2,4-benzothiadiazine-1,1-dioxide] | 
254 to 258 °C | NS(=O)(=O)c1cc(Br)c2c(c1)S(=O)(=O)NC(C1CCCCC1)N2 (stereo not drawn) [Compound 101, 5-Bromo-3-cyclohexyl-7-sulfamoyl-1,2,3,4-tetrahydro-1,2,4-benzothiadiazine-1,1-dioxide] | 
196 to 200 °C | O=S1(=O)NC(C2CCCCC2)Nc2cc3c(cc21)OCCO3 (stereo not drawn) [Compound 118, 3-cyclohexyl-6,7-ethylenedioxy-1,2,3,4-tetrahydro-1,2,4-benzothiadiazine-1,1-dioxide] | 
268 to 270 °C | O=S1(=O)NC(C2CCCCC2)Nc2ccc3c(c21)OCCO3 (stereo not drawn) [Compound 122, 3-Cyclohexyl-7,8-ethylenedioxy-1,2,3,4-tetrahydro-1,2,4-benzothiadiazine-1,1-dioxide] | 
 | NS(=O)(=O)c1cc2c(cc1Cl)NC(C1CC3C=CC1C3)NS2(=O)=O (stereo not drawn) [cyclothiazide, reference compound] | AMPA evoked spike activity (AMPA receptors): did not enhance
